Results published in US5760036A, “Aminediol protease inhibitors” (E. R. Squibb & Sons, Inc., priority 1995, dated 1998).
Read-outs that look alike come from different tables or passages of the source.

Experiments:
HIV protease = target: T1, HIV protease (Human immunodeficiency virus type 1 group M subtype B, UniProt P04585); test: HIV Protease Assay; format: biochemical
T1 construct: and purified protease
In short: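 Purified protease cleaved 450 μM octapeptide substrate in 50 mM sodium acetate pH 5.5 with 100 μg/ml BSA for 30 minutes at 37° C; product analyzed by reverse-phase HPLC at UV220 after H3PO4 quench. Inhibitors tested at final 10 μM with 4% DMSO.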

[1] = test system: RF strain of HIV (CEM-SS cells); test: Cell Culture Anti-HIV Activity (cell viability, formazan); format: cell-based; settings: Human immunodeficiency virus 1, CEM-SS, 144 h, CEM-SS cells, RF strain of HIV, multiplicity of infection 0.04, 6 days at 37° C., 450 nm; read-out: HIV (CEM Cells) IC50
In short: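 CEM-SS cells (5000/well) infected with HIV RF at MOI 0.04, exposed to half-log serial compound dilutions, incubated 6 days at 37° C. Viability read by tetrazolium reduction to formazan, absorbance 450 nm. IC50 is the concentration raising formazan in infected cells to 50% of uninfected, drug-free cells.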

[2] = pH 5.5, 10 μM inhibitor, 4% DMSO, 450 μM substrate, pH 5.5, 30 minutes at 37° C., RP-HPLC, read-out: HIV Protease % Inhibition at 10 μM

For `CC(C)(C)OC(=O)N[C@@H](Cc1ccccc1)[C@H](O)CNC[C@@H](O)[C@H](Cc1ccccc1)NC(=O)[C@@H](NC(=O)OCC1COC(=O)N1)C(C)(C)C` (stereo partly drawn) [Compound 315, [S-[1R*,2S*(2S*,3R*)]]-[2,2-Dimethyl-l-[[[3-[[3-[[(1,1-dimethylethoxy)carbonyl]amino]-2-hydroxy-4-phenylbutyl]amino]-2-hydroxy-1-(phenylmethyl)-propyl]amino]carbonyl]propyl]carbamic acid, (2-oxo-4-oxazolidinyl)methyl ester], the inhibition at 10 µM (HIV protease; [2]) was 100% and the IC50 [1] was 1600 nM.

With `CC(C)(C)OC(=O)N[C@@H](Cc1ccccc1)[C@H](O)CNC[C@@H](O)[C@H](Cc1ccccc1)NC(=O)OC(C)(C)CCCNCc1ccccc1` [Compound 153, [1S-(1R*,2S*)]-[Iminobis[2-hydroxy-1-(phenylmethyl)-3,1-propanediyl]biscarbamic acid, 1,1-dimethylethyl 1,1-dimethyl-4-[(phenylmethyl)-amino]butyl ester] the inhibition at 10 µM (HIV protease; [2]) was 65% and the IC50 [1] was greater than 550 nM.

`COC(C(=O)N[C@@H](Cc1ccccc1)[C@H](O)CNC[C@@H](O)[C@H](Cc1ccccc1)NC(=O)OC(C)(C)C)C(C)(C)C` (stereo partly drawn) [Compound 325, [1S-[1R*,2S*(2S*,3R*)]]-[2-Hydroxy-3-[[2-hydroxy-3-[(2-methoxy-3,3-dimethyl-1-oxobutyl)amino]-4-phenylbutyl]amino]-1-(phenylmethyl)-propyl]carbamic acid, 1,1-dimethylethyl ester] gave an inhibition at 10 µM (HIV protease; [2]) of 90% and an IC50 [1] of 1540 nM.

`CC(C)[C@H](NC(=O)[C@H](C)O)C(=O)N[C@@H](Cc1ccccc1)[C@H](O)CNC[C@@H](O)[C@H](Cc1ccccc1)NC(=O)OC(C)(C)C` [Compound 225, [1S-[[1R*,2S*(2S*,3R*)],N^2-(R*)]-N-[3-[[3-[[(1,1-Dimethylethoxy)carbonyl]amino]-2-hydroxy-4-phenylbutyl]amino]-2-hydroxy-1-(phenylmethyl)propyl]-N^2-(2-hydroxy-1-oxo-propyl)-L-valinamide] showed an inhibition at 10 µM (HIV protease; [2]) of 99% and an IC50 [1] of 500 nM.

With `CC(C)(CO)OC(=O)N[C@@H](Cc1ccccc1)[C@H](O)CNC[C@@H](O)[C@H](Cc1ccccc1)NC(=O)OC(C)(C)CO` [Compound 165, [R-(R*,S*)]-[Iminobis[2-hydroxy-1-(phenylmethyl)-3,1-propanediyl)biscarbamic acid, bis(2-hydroxy-1,1-dimethylethyl) ester] the inhibition at 10 µM (HIV protease; [2]) was 100% and the IC50 [1] was 620 nM.

`CC(C)(C)OC(=O)N[C@@H](Cc1ccccc1)[C@H](O)CNC[C@@H](O)[C@H](Cc1cccc(O)c1)NC(=O)OC(C)(C)C` [Compound 29, [1S-[1R*,2S*(2S*,3R*)]]-[3-[[3-[[(1,1-Dimethylethoxy)-carbonyl]amino]-2-hydroxy-4-(3-hydroxyphenyl)butyl]-amino]-2-hydroxy-1-(phenylmethyl)propyl]carbamic acid, 1,1-dimethylethyl ester] gave an inhibition at 10 µM (HIV protease; pH 5.5, read-out: HIV Protease % Inhibition at 10 μM) of 100% and an IC50 [1] of 100 nM.

`CC(C)(C)OC(=O)N[C@@H](Cc1ccccc1)[C@H](O)CNC[C@@H](O)[C@H](Cc1ccc2ncccc2c1)NC(=O)OC(C)(C)C` [Compound 31, [1S-[1R*,2S*(2S*,3R*)]]-[3-[[3-[[(1,1-Dimethylethoxy)-carbonyl]amino]-2-hydroxy-4-phenylbutyl]amino-2-hydroxy-1-(6-quinolinylmethyl)propyl]carbamic acid, 1,1-dimethylethyl ester] was tested, and the inhibition at 10 µM (HIV protease; [2]) was 100% and the IC50 [1] was 30 nM.

Compound `CC(C)(C)OC(=O)N[C@@H](Cc1ccccc1)[C@H](O)CNC[C@@H](O)[C@H](Cc1ccccc1)NC(=O)O[C@H]1CCOC1` [Compound 331, [1S-(1R*,2S*,3R*)]-[Iminobis[2-hydroxy-1-(phenylmethyl)-3,1-propanediyl]]bis[carbamic acid], 3-tetrahydrofuranyl 1,1-dimethylethyl ester] has an inhibition at 10 µM (HIV protease; [2]) of 99% and an IC50 [1] of 60 nM.
